target: Voltage-gated inwardly rectifying potassium channel KCNH2 (Homo sapiens, UniProt Q12809); experiment: Inhibition of human ERG by [35S]-MK499 displacement or iKr channel assay
Sequence (Q12809 whole entry): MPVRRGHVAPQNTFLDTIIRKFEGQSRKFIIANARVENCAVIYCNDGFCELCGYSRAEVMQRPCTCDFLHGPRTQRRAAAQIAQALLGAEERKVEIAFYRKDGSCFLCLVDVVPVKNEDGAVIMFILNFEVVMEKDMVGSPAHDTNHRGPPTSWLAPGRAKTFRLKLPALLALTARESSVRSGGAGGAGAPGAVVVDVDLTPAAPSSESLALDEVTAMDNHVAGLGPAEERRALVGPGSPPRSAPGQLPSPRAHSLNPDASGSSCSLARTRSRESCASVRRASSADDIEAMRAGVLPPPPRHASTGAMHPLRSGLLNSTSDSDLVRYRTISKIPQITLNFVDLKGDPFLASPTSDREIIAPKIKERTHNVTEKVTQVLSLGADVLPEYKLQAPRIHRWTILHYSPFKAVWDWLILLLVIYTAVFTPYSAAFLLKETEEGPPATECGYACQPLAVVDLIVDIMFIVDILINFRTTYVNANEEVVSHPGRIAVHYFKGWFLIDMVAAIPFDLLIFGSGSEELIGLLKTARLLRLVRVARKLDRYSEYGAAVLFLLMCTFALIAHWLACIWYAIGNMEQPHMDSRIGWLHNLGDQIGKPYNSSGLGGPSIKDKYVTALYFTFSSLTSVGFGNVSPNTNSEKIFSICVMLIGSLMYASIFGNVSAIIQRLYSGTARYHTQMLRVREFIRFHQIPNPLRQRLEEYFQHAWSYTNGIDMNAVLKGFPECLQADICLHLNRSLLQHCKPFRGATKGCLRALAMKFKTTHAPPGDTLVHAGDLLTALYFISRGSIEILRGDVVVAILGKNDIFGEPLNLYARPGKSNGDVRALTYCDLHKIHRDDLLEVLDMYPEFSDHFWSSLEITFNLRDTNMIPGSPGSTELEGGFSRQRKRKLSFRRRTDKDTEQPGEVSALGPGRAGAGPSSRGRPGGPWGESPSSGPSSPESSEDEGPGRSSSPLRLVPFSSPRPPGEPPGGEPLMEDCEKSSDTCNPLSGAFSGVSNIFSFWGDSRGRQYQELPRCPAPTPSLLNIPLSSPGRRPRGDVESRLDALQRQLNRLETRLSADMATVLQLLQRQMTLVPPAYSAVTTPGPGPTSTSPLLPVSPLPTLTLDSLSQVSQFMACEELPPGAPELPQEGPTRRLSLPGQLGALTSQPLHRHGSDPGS

| Compound | IC50 |
| --- | --- |
| CC1(C(=O)N2CC(c3nc(-c4ccc(C(=O)Nc5cc(C(F)(F)F)ccn5)cc4)c4c(N)nccn34)C2)COC1 | 0.4 µM |
| CC1(C(=O)N2CCO[C@@H](c3nc(-c4ccc(C(=O)Nc5cc(C(F)(F)F)ccn5)cc4F)c4c(N)nccn34)C2)CCC1 | 14 µM |
| CC1(C(=O)N2CCO[C@@H](c3nc(-c4ccc(C(=O)Nc5cc(C(F)(F)F)ccn5)cc4)c4c(N)nccn34)C2)COC1 | 14.4 µM |
| COCCC(=O)N1CCO[C@@H](c2nc(-c3ccc(C(=O)Nc4cc(C(F)(F)F)ccn4)cc3)c3c(N)nccn23)C1 | 5.8 µM |
| CC(=O)N1CCC[C@@H](c2nc(-c3ccc(C(=O)Nc4cc(C(F)(F)F)ccn4)cc3F)c3c(N)nccn23)C1 | 2.4 µM |
| COCCC(=O)N1CCSC(c2nc(-c3ccc(C(=O)Nc4cc(C(F)(F)F)ccn4)cc3)c3c(N)nccn23)C1 (configuration not stated) | 1.8 µM |
| CC1(C(=O)N2CC[C@@H](c3nc(-c4ccc(C(=O)Nc5cc(C(F)(F)F)ccn5)cc4)c4c(N)nccn34)C2)COC1 | 2.5 µM |

Reference: ChEMBL document CHEMBL4052776, “Discovery of 3-morpholino-imidazole[1,5-a]pyrazine BTK inhibitors for rheumatoid arthritis” (Bioorg Med Chem Lett, 2017)
